According to patent publication US4325947A (priority 1981, dated 1982):
≈ marks a conversion by molar mass, not a printed value. Where “and” joins values, the source holds several entries; their conditions need not be identical. Equal values may be shown once. Read-outs that look alike come from different tables or passages of the source.

What was measured:
Gross leukemia = test: Activity against disseminated Gross leukemia in mice, i.v. and oral; conditions: for T/C % (survival time treated/controls × 100) / Toxic deaths: day 1
From the text: (§1) ^3 Medium survival time of treated animals/medium survival time of […]

P388 ascitic leukemia = test: Activity against P388 ascitic leukemia in mice, ip
Procedure: Activity against P388 ascitic leukemia^1
^1 Mice were injected ip with 10^6 leukemia cells/mouse. Data of
^2 Treatment ip on day 1 after tumor inoculum.
as §1

HeLa cells = HeLa cells cloning efficiency in vitro, treatment for 24 hours; conditions: for IC50: read-out: ID50
L1210 leukemia = system: L1210 leukemia
From the text: as §1

experimental leukemias = test: In vivo antitumor activity/potency versus doxorubicin (general statements); parameters: species or system mice
From the text: In vivo the compound has been compared to doxorubicin against three different experimental leukemias of mice.

[1] = Homo sapiens, HeLa, 24 h, read-out: % of controls (HeLa cells cloning efficiency)

## COc1cccc2c1C(=O)c1c(O)c3c(c(O)c1C2=O)C[C@@](O)(C(=O)CO)C[C@@H]3O[C@H]1C[C@H](N)[C@H](O)[C@H](C)O1 [Doxorubicin, doxorubicin, reference compound]
Gross leukemia; i.v. 13 mg/kg
  T/C % (survival time treated/controls × 100): 200%
  Toxic deaths: 0/18
Gross leukemia; i.v. 16.9 mg/kg
  Toxic deaths: 0/18
Gross leukemia; i.v. 16.9 mg/kg, 16.9 mg/kg
  T/C % (survival time treated/controls × 100): 233% and 216%
P388 ascitic leukemia; 4.4 mg/kg ip on day 1
  T/C % (survival time treated/controls × 100): 210% and 180%
  Toxic deaths: 0/16
P388 ascitic leukemia; 6.6 mg/kg ip on day 1
  T/C % (survival time treated/controls × 100): 220% and 190%
  Toxic deaths: 0/16
P388 ascitic leukemia; 10.0 mg/kg ip on day 1
  T/C % (survival time treated/controls × 100): 225% and 220%
  Toxic deaths: 0/16
HeLa cells; [1]
  activity at 0.0031 µg/mL: 102%
  activity at 0.0062 µg/mL: 68%
  activity at 0.0125 µg/mL: 44%
HeLa cells; Homo sapiens, HeLa, 24 h
  IC50: ~10 ng/mL (≈ 18.4 nM)
L1210 leukemia; 10 mg/kg iv on day 1
  T/C % (survival time treated/controls × 100): 133%
  Toxic deaths: 0/10
L1210 leukemia; 13 mg/kg iv on day 1
  T/C % (survival time treated/controls × 100): 150%
  Toxic deaths: 0/9
L1210 leukemia; 16.9 mg/kg iv on day 1
  T/C % (survival time treated/controls × 100): 166%
  Toxic deaths: 1/10

## C[C@H]1C[C@@H](N)C[C@H](O[C@H]2C[C@](O)(C(=O)CO)Cc3c(O)c4c(c(O)c32)C(=O)c2ccccc2C4=O)O1 [XOO-0144, 4-demethoxy-4'-deoxydoxorubicin]
Gross leukemia; i.v. 0.35 mg/kg
  T/C % (survival time treated/controls × 100): 100%
  Toxic deaths: 0/8
Gross leukemia; i.v. 0.53 mg/kg
  T/C % (survival time treated/controls × 100): 108%
  Toxic deaths: 0/8
Gross leukemia; i.v. 0.8 mg/kg
  T/C % (survival time treated/controls × 100): 116%
  Toxic deaths: 0/10
Gross leukemia; i.v. 1.2 mg/kg
  Toxic deaths: 0/20
Gross leukemia; i.v. 1.2 mg/kg, 1.2 mg/kg
  T/C % (survival time treated/controls × 100): 150% and 208%
Gross leukemia; i.v. 1.8 mg/kg
  T/C % (survival time treated/controls × 100): 133%
  Toxic deaths: 9/10
Gross leukemia; i.v. 2.7 mg/kg
  T/C % (survival time treated/controls × 100): 116%
  Toxic deaths: 10/10
Gross leukemia; oral 2.7 mg/kg
  T/C % (survival time treated/controls × 100): 150%
  Toxic deaths: 1/8
Gross leukemia; oral 5.4 mg/kg
  T/C % (survival time treated/controls × 100): 133%
  Toxic deaths: 4/6
Gross leukemia; oral 10.8 mg/kg
  T/C % (survival time treated/controls × 100): 100%
  Toxic deaths: 5/5
Gross leukemia; oral, Gross leukemia
  activity by oral route: active also when given by oral route
P388 ascitic leukemia; 0.04 mg/kg ip on day 1
  T/C % (survival time treated/controls × 100): 130%
P388 ascitic leukemia; 0.12 mg/kg ip on day 1
  T/C % (survival time treated/controls × 100): 170%
P388 ascitic leukemia; 0.25 mg/kg ip on day 1
  T/C % (survival time treated/controls × 100): 205% and 195%
P388 ascitic leukemia; 0.5 mg/kg ip on day 1
  T/C % (survival time treated/controls × 100): 235%
P388 ascitic leukemia; 1 mg/kg ip on day 1
  T/C % (survival time treated/controls × 100): 75% and 90%
  Toxic deaths: 7/16
P388 ascitic leukemia; 5 mg/kg ip on day 1
  T/C % (survival time treated/controls × 100): 55%
  Toxic deaths: 8/8
P388 ascitic leukemia; administered ip
  optimal doses: 0.25 to 0.5 mg/kg
P388 ascitic leukemia; administered ip, mice bearing P388 ascitic leukemia
  potency relative to doxorubicin, ip: 10-20 times
P388 ascitic leukemia; ip, 0.25-0.5 mg/kg vs doxorubicin from 4 to 10 mg/kg
  antitumor activity compared with doxorubicin: antitumor activity of the same order of magnitude as that of doxorubicin
HeLa cells; HeLa cells cloning efficiency, more cytotoxic than doxorubicin
  cytotoxicity relative to doxorubicin: about 25 times
HeLa cells; [1]
  activity at 20 pg/mL: 102%
  activity at 90 pg/mL: 72%
  activity at 0.00039 µg/mL: 69%
  activity at 0.0015 µg/mL: 26%
  activity at 0.0062 µg/mL: 1%
  activity at 0.025 µg/mL: 0%
HeLa cells; Homo sapiens, HeLa, 24 h
  IC50: ~0.4 ng/mL (≈ 0.804 nM)
HeLa cells; in comparison with doxorubicin
  potency in vitro in comparison with doxorubicin (summary, words): more potent in vitro
HeLa cells; in vitro, with reference to doxorubicin
  potency in vitro relative to doxorubicin: 10-20 times
L1210 leukemia; 0.9 mg/kg iv on day 1
  T/C % (survival time treated/controls × 100): 183%
  Toxic deaths: 0/10
L1210 leukemia; 1.2 mg/kg iv on day 1
  T/C % (survival time treated/controls × 100): 191%
  Toxic deaths: 0/10
L1210 leukemia; 1.56 mg/kg iv on day 1
  T/C % (survival time treated/controls × 100): 116%
  Toxic deaths: 6/10
L1210 leukemia; in comparison with doxorubicin
  activity against L1210 leukemia in comparison with doxorubicin (summary, words): more active against L1210 leukemia
L1210 leukemia; iv
  tolerated doses: 0.9 mg/kg and 1.2 mg/kg
L1210 leukemia; iv, tolerated doses 0.9 and 1.2 mg/kg vs doxorubicin 13 mg/kg
  effectiveness compared with doxorubicin: more effective than doxorubicin
Experimental leukemias; administered iv
  potency relative to doxorubicin, iv: about 10 times
Experimental leukemias; both i.p. and i.v. administration
  potency in vivo in comparison with doxorubicin (summary, words): more potent in vivo (both i.p. and i.v. administration)
Experimental leukemias; in vivo, with reference to doxorubicin
  potency in vivo relative to doxorubicin: about 10 times
Experimental leukemias
  activity by oral route: active also when administered orally
Experimental leukemias; listed as 4-demethoxy-4'-deoxydoxorubicin
  activity by oral route: active also when given by oral route
